Data set [1] is described as follows: Half-life in human. It counts as ADME.
Data set [2] concerns the target T1, Orexin/Hypocretin receptor type 1 (Homo sapiens, UniProt O43613).
T1 sequence (O43613 whole entry): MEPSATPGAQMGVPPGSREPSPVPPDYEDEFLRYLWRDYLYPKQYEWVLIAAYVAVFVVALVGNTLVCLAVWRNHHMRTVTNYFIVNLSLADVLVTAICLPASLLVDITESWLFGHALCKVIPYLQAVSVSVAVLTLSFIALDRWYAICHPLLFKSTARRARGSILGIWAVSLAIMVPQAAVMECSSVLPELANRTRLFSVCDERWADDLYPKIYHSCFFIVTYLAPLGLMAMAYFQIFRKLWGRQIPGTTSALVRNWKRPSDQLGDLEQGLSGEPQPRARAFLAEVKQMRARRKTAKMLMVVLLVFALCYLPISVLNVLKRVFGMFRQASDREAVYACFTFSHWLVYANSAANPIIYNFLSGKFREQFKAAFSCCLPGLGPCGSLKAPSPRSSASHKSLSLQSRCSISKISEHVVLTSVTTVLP
Nature of the data set: Antagonist activity at human recombinant OX1R expressed in CHOK1 cells assessed as inhibition of orexin A-induced intracellular Ca2+ release preincubated for 30 mins followed by orexin-A stimulation by Fluo4-AM dye based fluorescence analysis. It counts as functional, cell-based, CHO-K1.

Data set [3] can be described thus: Lipophilicity, log D of the compound at pH 7.4 by HPLC analysis. Type of data set: physicochemical. Conditions: buffer.
Data set [4] is described as follows: Half-life in dog at 0.5 mg/kg, iv. Type of data set: ADME, organism-based, Canis lupus familiaris. The settings on record: in vivo.
The target of the next data set is T2, Orexin receptor type 2 (Homo sapiens, UniProt O43614).
T2 sequence (O43614 whole entry): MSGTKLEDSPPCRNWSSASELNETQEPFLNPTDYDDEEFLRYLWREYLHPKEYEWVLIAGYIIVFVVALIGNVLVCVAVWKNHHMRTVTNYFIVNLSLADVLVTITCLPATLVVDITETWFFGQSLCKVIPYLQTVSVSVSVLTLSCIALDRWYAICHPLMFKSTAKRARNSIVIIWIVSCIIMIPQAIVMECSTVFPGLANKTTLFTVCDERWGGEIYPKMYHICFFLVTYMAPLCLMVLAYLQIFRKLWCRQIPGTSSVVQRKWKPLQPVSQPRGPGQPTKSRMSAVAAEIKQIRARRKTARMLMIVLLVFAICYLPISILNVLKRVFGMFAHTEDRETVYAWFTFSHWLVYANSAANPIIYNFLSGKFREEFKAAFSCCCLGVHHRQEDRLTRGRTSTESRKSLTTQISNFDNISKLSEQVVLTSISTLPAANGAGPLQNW
Nature of the data set: Antagonist activity at human recombinant OX2R expressed in CHOK1 cells assessed as inhibition of orexin A-induced intracellular Ca2+ release preincubated for 30 mins followed by orexin-A stimulation by Fluo-4AM dye based fluorescence analysis. It counts as functional, cell-based, CHO-K1.

The nature of data set [5]: Half-life in Sprague-Dawley rat at 2 mg/kg, iv. Type of data set: ADME, organism-based. Conditions: in vivo.
The subject of data set [6] is Rattus norvegicus. In words: Sleep-promoting activity in ip dosed Wistar rat by polysomnography. It counts as functional. Conditions: read-out: MED.
The nature of data set [7]: Drug uptake in cerebrospinal fluid in Sprague-Dawley rat at 3 mg/kg, po measured after 1 hr. It counts as ADME, organism-based. The settings on record: read-out: Drug uptake.
In data set [8] the test system is Rattus norvegicus. In words: Sleep-promoting activity in po dosed Wistar rat assessed as increase in total sleep administered 10 mins prior to the onset of dark period measured every 20s for 2 hrs by polysomnography. It counts as functional, organism-based.
Data set [9] relates to Rattus norvegicus. Nature of the data set: Sleep-promoting activity in Wistar rat assessed as fast sleep onset latency at 1 to10 mg/kg, po administered 10 mins prior to the onset of dark period measured every 20s for 2 hrs by polysomnography. Type of data set: functional, organism-based.
Data set [10] can be described thus: Chemical stability of the compound in JP 1st fluid at pH 1.2 at 37 degC incubated for 24 hrs. It counts as physicochemical. Conditions: buffer, pH 1.2, 24 h.
A short description of data set [11]: Ratio of drug level in cerebrospinal fluid to plasma in Sprague-Dawley rat at 3 mg/kg, po. Type of data set: ADME, organism-based. The settings on record: csf.
A short description of data set [12]: Volume of distribution in Sprague-Dawley rat at 1 mg/kg or 2 mg/kg, iv. Type of data set: ADME, organism-based. Conditions: in vivo.
Data set [13] can be described thus: Ratio of drug level in brain to plasma in Sprague-Dawley rat at 3 mg/kg, po. Type of data set: ADME, organism-based.
The nature of data set [14]: Drug metabolism in human liver microsomes incubated for 15 mins. It counts as ADME, Microsome. Conditions: read-out: Drug metabolism. In general terms: Liver microsomes are a subcellular fraction often used to study metabolism.
Data set [15] can be described thus: Half-life in Sprague-Dawley rat at 1 mg/kg or 2 mg/kg, iv. The settings on record: in vivo. Type of data set: ADME, organism-based.
The nature of data set [16]: Oral bioavailability in Sprague-Dawley rat at 3 mg/kg. Type of data set: ADME, organism-based. The settings on record: in vivo.
Data set [17] in a line: Plasma protein binding in dog at 2 ug/mL. Type of data set: ADME, cell-free, Canis lupus familiaris. The settings on record: read-out: PPB (converted).
The nature of data set [18]: Plasma protein binding in Sprague-Dawley rat at 2 ug/mL. Type of data set: ADME, cell-free. The settings on record: read-out: PPB (converted).
The target of data set [19] is T3, Orexin receptor type 2 (Rattus norvegicus) (UniProt P56719).
T3 sequence (whole entry): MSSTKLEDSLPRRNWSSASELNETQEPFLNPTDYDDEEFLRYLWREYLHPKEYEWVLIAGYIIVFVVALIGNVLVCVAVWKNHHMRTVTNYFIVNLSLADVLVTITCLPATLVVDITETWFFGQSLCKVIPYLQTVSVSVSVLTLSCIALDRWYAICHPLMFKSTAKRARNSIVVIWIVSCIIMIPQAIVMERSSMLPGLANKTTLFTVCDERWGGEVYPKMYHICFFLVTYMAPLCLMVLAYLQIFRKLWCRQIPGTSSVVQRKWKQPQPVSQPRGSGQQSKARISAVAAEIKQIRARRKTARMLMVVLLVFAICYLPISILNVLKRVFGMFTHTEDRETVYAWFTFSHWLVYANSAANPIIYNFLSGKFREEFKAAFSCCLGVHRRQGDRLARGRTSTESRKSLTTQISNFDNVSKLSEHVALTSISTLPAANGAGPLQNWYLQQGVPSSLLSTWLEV
Nature of the data set: Antagonist activity at rat recombinant OX2R expressed in CHOK1 cells assessed as inhibition of orexin A-induced intracellular Ca2+ release preincubated for 30 mins followed by orexin-A stimulation by Fluo4-AM dye based fluorescence analysis. It counts as functional, cell-based. Conditions: CHO-K1.

Data set [20] has as its system Rattus norvegicus. Nature of the data set: Sleep-promoting activity in po dosed Wistar rat administered 10 mins prior to the onset of dark period measured every 20s for 2 hrs by polysomnography. The settings on record: read-out: MED. Type of data set: functional.
A short description of data set [21]: Volume of distribution in dog at 0.5 mg/kg, iv. Conditions: in vivo. Type of data set: ADME, organism-based, Canis lupus familiaris.
Data set [22] can be described thus: Tmax in Sprague-Dawley rat at 3 mg/kg, po. It counts as ADME, organism-based. The settings on record: in vivo.
The nature of data set [23]: Tmax in dog at 3 mg/kg, po. The settings on record: in vivo. Type of data set: ADME, organism-based, Canis lupus familiaris.
Data set [24] in a line: Clearance in Sprague-Dawley rat at 1 mg/kg or 2 mg/kg, iv. Type of data set: ADME, organism-based. Conditions: in vivo.
Data set [25] in a line: Clearance in dog at 0.5 mg/kg, iv. It counts as ADME, organism-based, Canis lupus familiaris. The settings on record: in vivo.
Another data set addresses P-gp (ABCB1) (Homo sapiens, UniProt P08183). In words: Substrate activity at P-gp (unknown origin) assessed as efflux ratio. It counts as ADME. Conditions: not told.
Data set [26] addresses T4, Orexin/Hypocretin receptor type 1 (Rattus norvegicus) (UniProt P56718).
T4 sequence (whole entry): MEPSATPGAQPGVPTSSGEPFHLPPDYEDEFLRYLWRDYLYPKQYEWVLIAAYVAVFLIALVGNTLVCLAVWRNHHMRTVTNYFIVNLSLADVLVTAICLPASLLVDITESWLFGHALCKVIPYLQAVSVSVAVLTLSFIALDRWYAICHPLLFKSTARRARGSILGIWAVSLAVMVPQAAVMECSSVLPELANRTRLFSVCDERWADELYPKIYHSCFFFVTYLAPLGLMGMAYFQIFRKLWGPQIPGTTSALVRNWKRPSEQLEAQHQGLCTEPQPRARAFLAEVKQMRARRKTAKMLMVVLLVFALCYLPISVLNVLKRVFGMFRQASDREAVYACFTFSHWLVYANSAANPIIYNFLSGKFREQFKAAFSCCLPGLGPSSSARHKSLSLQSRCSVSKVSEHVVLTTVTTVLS
In words: Antagonist activity at rat recombinant OX1R expressed in CHOK1 cells assessed as inhibition of orexin A-induced intracellular Ca2+ release preincubated for 30 mins followed by orexin-A stimulation by Fluo4-AM dye based fluorescence analysis. Type of data set: functional, cell-based. Conditions: CHO-K1.

Data set [27] is described as follows: Oral bioavailability in dog at 3 mg/kg. Type of data set: ADME, organism-based, Canis lupus familiaris. Conditions: in vivo.
Data set [28] can be described thus: Drug metabolism in rat liver microsomes incubated for 15 mins. It counts as ADME, Microsome. Conditions: read-out: Drug metabolism.
Data set [29] can be described thus: Drug metabolism in dog liver microsomes incubated for 15 mins. Type of data set: ADME, Canis lupus familiaris, Microsome. Conditions: read-out: Drug metabolism.
Data set [30] can be described thus: Half-life in human plasma at 40 mg,po administered once daily. Type of data set: ADME, cell-free.
A short description of data set [31]: Half-life in human at 10 to 80 mg, po administered as single dose. It counts as ADME, organism-based. The settings on record: in vivo.

Activity calls are given as the source filed them. The rule behind the calls is not given here.

Sequence of P-gp (ABCB1) (P08183 whole entry): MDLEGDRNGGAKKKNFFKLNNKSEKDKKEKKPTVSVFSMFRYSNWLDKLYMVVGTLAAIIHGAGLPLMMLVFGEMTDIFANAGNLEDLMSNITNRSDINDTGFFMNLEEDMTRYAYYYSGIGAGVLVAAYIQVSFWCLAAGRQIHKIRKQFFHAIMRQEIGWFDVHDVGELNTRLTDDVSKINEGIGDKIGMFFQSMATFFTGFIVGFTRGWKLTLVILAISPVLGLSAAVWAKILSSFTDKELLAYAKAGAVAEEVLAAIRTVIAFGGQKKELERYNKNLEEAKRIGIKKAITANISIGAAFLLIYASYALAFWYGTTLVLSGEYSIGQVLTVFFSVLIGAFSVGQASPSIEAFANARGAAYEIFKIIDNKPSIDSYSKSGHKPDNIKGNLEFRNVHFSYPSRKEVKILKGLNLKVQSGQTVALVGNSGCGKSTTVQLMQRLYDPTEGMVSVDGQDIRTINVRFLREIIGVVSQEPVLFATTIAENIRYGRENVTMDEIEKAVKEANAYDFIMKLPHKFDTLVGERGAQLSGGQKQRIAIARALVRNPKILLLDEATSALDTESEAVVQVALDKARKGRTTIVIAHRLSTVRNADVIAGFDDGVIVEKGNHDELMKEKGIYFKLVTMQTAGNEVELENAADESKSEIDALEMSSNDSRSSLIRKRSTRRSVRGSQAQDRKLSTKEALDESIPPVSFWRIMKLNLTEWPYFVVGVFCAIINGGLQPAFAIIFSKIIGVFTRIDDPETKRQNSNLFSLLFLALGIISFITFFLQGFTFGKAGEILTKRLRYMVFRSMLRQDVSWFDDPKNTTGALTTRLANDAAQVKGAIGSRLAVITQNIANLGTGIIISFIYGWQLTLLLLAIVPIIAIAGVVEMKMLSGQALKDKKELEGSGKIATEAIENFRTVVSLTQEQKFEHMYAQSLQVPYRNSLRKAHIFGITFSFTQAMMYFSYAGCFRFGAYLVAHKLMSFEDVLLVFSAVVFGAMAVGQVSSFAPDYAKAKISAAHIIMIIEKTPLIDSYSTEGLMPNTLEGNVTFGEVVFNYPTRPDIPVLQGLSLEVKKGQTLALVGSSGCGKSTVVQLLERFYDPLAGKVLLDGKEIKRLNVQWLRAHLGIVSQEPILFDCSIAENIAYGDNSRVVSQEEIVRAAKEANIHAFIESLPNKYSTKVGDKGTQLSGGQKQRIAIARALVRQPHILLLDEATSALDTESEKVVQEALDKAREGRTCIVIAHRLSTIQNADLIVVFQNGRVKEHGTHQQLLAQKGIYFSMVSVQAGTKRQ

As usually defined, the half-life is the time in which the quantity being followed falls by half. A high value points to slow loss. On to `COc1ccc(-n2nccn2)c(C(=O)N2CCC[C@@]2(C)c2nc3c(C)c(Cl)ccc3[nH]2)c1` [DARIDOREXANT], for which the half-life in data set [1] was 6 h.
The term IC50 denotes the midpoint of a concentration-inhibition curve. As a reminder, the logD is lipophilicity at a set pH, counting ionised and neutral species. Lower therefore signals a more hydrophilic compound. For the compound `CCN(CCn1ccc(-c2ccc(F)cn2)n1)C(=O)c1ccccc1-n1nccn1`, the IC50 stood at 20.6 nM in data set [2] and 38.7 nM on Orexin receptor type 2. In data set [3], this compound came in with a logD of 2.53. Further, the half-life in data set [4] is 1.07 h; in [5], 0.412 h. In the data set with Rattus norvegicus [6], the minimal effective dose is 3 mg/kg.
Usually Vd stands for the apparent volume that relates the amount in the body to the concentration in plasma or blood. A high value points to wide distribution into tissue. As a reminder, the bioavailability is the share of a dose that reaches the circulation, judged against a reference dose that is usually intravenous. Read a high bioavailability as much systemic uptake. By Kb is commonly meant the equilibrium dissociation constant of an antagonist, usually derived from a functional assay. For orientation: Tmax means the time at which the peak concentration occurs. As a reminder, the clearance is the volume of plasma or blood freed of the substance per unit of time. Read a high clearance as a high capacity for elimination. For orientation: efflux ratio means the permeability from basolateral to apical divided by that in the opposite direction, in the common usage. For `Cc1ccc(-n2nccn2)c(C(=O)N2CCCO[C@H]2Cn2ccc(-c3ccc(F)cn3)n2)c1`, in data set [7], the concentration at 1 h was 2.23 nM. Also, the Activity result in the data set on Rattus norvegicus [8] was “Dose-dependent effect”. In the data set with Rattus norvegicus [9], the outcome was Active. The Stability result in [10] is on record as “Stable”. Further, the IC50 amounted to 1.05 nM in data set [2] and 1.27 nM on Orexin receptor type 2. This compound showed a logD in [3] of 2.58. Moreover, the results for the Ratio in data set [11] and in [13] were 3.1% and 13.5%, respectively. The Vd is 0.853 L/kg in data set [12] and 0.294 L/kg in data set [21]. Further, the figures for the metabolised at 0.25 h in data set [14], in [28] and in data set [29] were 34.4%, 51% and 10.5%, respectively. Also, the half-life was 0.238 h in [15] and 1.16 h in [4]. Besides, the figures for the bioavailability in [16] and in data set [27] were 5.5% and 61.6%, respectively. The figures for the fraction unbound at 2 ug/mL in data set [17] and in data set [18] were 0.036 and 0.12, respectively. Further, the Kb came to 0.8 nM in data set [19] and 0.44 nM in data set [26]. Also, the minimal effective dose with Rattus norvegicus [20] came to 1 mg/kg. Further, the Tmax is 0.333 h in data set [22] and 0.583 h in [23]. The clearance in data set [24] is 39.5 mL/min/kg; in [25], 2.65 mL/min/kg. For the same compound, the efflux ratio on P-gp (ABCB1) turned out to be 2.43.
For the compound `Cc1ccc(-n2nccn2)c(C(=O)N2CCN(c3nc4cc(Cl)ccc4o3)CC[C@H]2C)c1` [SUVOREXANT], the half-life in [30] is 12 h.
Consider `Cc1cc(C)nc(N2CC3CN(C(=O)c4c(F)cccc4-n4nccn4)CC3C2)n1` (configuration not stated) [SELTOREXANT], for which the half-life in data set [31] is 2 h.

(Values after ChEMBL document CHEMBL4622874, “Discovery of ORN0829, a potent dual orexin 1/2 receptor antagonist for the treatment of insomnia” (Bioorg Med Chem, 2020).)
